Laboratory results: patent US6743804B2, “Quinoline derivatives as NK3 antagonists” (SmithKline Beecham S p.A., priority 1996, dated 2004)
Counter-ions that a name gives are not always drawn.

Test system: not given
Assay: not given

| melting point | Compound |
| --- | --- |
| 140 °C (dec.) | COC(=O)[C@H](NC(=O)c1cc(-c2ccccc2)nc2ccccc12)c1ccc(O)cc1 (as salt: HCl) [Example 83, (R)-N-[α-(methoxycarbonyl)-4-hydroxybenzyl]-2-phenylquinoline-4-carboxamide] |
| 120 to 122 °C | COC(=O)[C@H](NC(=O)c1cc(-c2ccccc2)nc2ccccc12)C1=CCC=CC1 [Example 16] |
| 204 to 205 °C | C[C@H](O)[C@H](NC(=O)c1cc(-c2ccccc2)nc2ccccc12)c1ccccc1 [Example 17, (R,S)-N-[α-(1-hydroxyethyl)benzyl]-2-phenylquinoline-4-carboxamide] |
| 164 to 165 °C | CCC(NC(=O)c1c(OC)c(-c2ccccc2)nc2ccccc12)c1ccccc1 (centres unmarked) [Example 18] |
| 147 to 150 °C | CCCCc1c(-c2ccccc2)nc2ccccc2c1C(=O)NC(CC)c1ccccc1 (centres unmarked) [Example 19] |
| 186 to 188 °C | COC(=O)C(NC(=O)c1c2c(nc3ccccc13)-c1ccccc1CCC2)c1ccccc1 (centres unmarked) [Example 20] |
| 124 to 125 °C | COC(=O)C(NC(=O)c1cc(-c2ccccc2OC)nc2ccccc12)c1ccccc1 (centres unmarked) [Example 24] |
| 198 to 200 °C | CCC(NC(=O)c1c(-c2ccccc2)c(-c2ccccc2)nc2ccccc12)c1ccccc1 (centres unmarked) [Example 25] |
| 146 to 147 °C | COC(=O)C(NC(=O)c1cc(-c2ccccc2F)nc2ccccc12)c1ccccc1 (centres unmarked) [Example 26] |
| 193 to 194 °C | CCC(NC(=O)c1cc(-c2ccccc2)nc2ccccc12)c1ccc(Cl)c(Cl)c1 (centres unmarked) [Example 27] |
| 117 to 119 °C | O=C(NC(CO)c1ccccc1)c1cc(-c2ccccc2)nc2ccccc12 (centres unmarked) [Example 28] |
| 180 to 181 °C | COC(=O)C(NC(=O)c1c(C)c(-c2ccccc2)nc2ccccc12)c1ccccc1 (centres unmarked) [Example 30] |
| 180 to 183 °C | COC(=O)C(NC(=O)c1cc(-c2ccccc2)nc2cc(Cl)ccc12)c1ccccc1 (centres unmarked) [Example 32] |
| 179 to 181 °C | COC(=O)C(NC(=O)c1cc(-c2ccccc2)nc2ccc(C)cc12)c1ccccc1 (centres unmarked) [Example 33] |
| 144 to 145 °C | COCC(NC(=O)c1cc(-c2ccccc2)nc2ccccc12)c1ccccc1 (centres unmarked) [Example 34] |
| 197 to 199 °C | COC(=O)C(NC(=O)c1cc(-c2ccccc2)nc2ccc(Cl)cc12)c1ccccc1 (centres unmarked) [Example 35] |
| 156 to 157 °C | CCc1c(-c2ccccc2)nc2ccccc2c1C(=O)NC(C(=O)OC)c1ccccc1 (centres unmarked) [Example 36] |
| 149 to 150 °C | CCCC(NC(=O)c1cc(-c2ccccc2)nc2ccccc12)c1ccccc1 (centres unmarked) [Example 37] |
| 158 to 159 °C | CCc1c(-c2ccccc2)nc2ccccc2c1C(=O)NC(CC)c1ccccc1 (centres unmarked) [Example 38] |
| 201 to 202 °C | CCC(NC(=O)c1c(N2C(=O)c3ccccc3C2=O)c(-c2ccccc2)nc2ccccc12)c1ccccc1 (centres unmarked) [Example 39] |

| melting point | Compound |
| --- | --- |
| 149 to 151 °C | CCCc1c(-c2ccccc2)nc2ccccc2c1C(=O)NC(CC)c1ccccc1 (centres unmarked) [Example 40] |
| 230 to 231 °C | CC[C@H](NC(=O)c1c(C)c(-c2ccc(Br)cc2)nc2ccc(Br)cc12)c1ccccc1 [Example 41] |
| 179 to 180 °C | CC[C@H](NC(=O)c1c(C)c(-c2ccccc2)nc2ccc(Br)cc12)c1ccccc1 [Example 42] |
| 209 to 211 °C | COC(=O)C(NC(=O)c1cc(-c2ccccc2)nc2ccc(OC)cc12)c1ccccc1 (centres unmarked) [Example 43] |
| 240 to 241 °C | COC(=O)C(NC(=O)c1cc(-c2cc3ccccc3o2)nc2ccccc12)c1ccccc1 (centres unmarked) [Example 44] |
| 194 to 196 °C | O=C(NC(Cc1ccccc1)c1ccccc1)c1cc(-c2ccccc2)nc2ccccc12 (centres unmarked) [Example 45] |
| 180 to 181 °C | O=C(NC(c1ccccc1)C(F)(F)F)c1cc(-c2ccccc2)nc2ccccc12 (centres unmarked) [Example 46] |
| 132 to 134 °C | CC[C@H](NC(=O)c1c(OC)c(-c2ccccc2)nc2ccccc12)c1ccccc1 [Example 47] |
| 118 to 120 °C | CCc1c(-c2ccccc2)nc2ccccc2c1C(=O)N[C@@H](CC)c1ccccc1 [Example 48] |
| 177 to 178 °C | CCC(NC(=O)c1cc(-c2ccccc2)nc2ccccc12)c1ccc(Cl)cc1 (centres unmarked) [Example 49] |
| 128 to 129 °C | COC(=O)C(c1ccccc1)N(C)C(=O)c1cc(-c2ccccc2)nc2ccccc12 (centres unmarked) [Example 50] |
| 169 to 171 °C | COC(=O)C(NC(=O)c1cc(-c2ccsc2)nc2ccccc12)c1ccccc1 (centres unmarked) [Example 51] |
| 217 to 219 °C | COC(=O)C(NC(=O)c1c2c(nc3ccccc13)-c1ccccc1CC2)c1ccccc1 (centres unmarked) [Example 52] |
| 181 to 182 °C | COC(=O)C(NC(=O)c1cc(-c2ccc[nH]2)nc2ccccc12)c1ccccc1 (centres unmarked) [Example 53] |
| 209 to 211 °C | COC(=O)C(NC(=O)c1cc(-c2nccs2)nc2ccccc12)c1ccccc1 (centres unmarked) [Example 54] |
| 155 to 156 °C | CCCCC(NC(=O)c1cc(-c2ccccc2)nc2ccccc12)c1ccccc1 (centres unmarked) [Example 56] |
| 172 to 174 °C | COC(=O)C(NC(=O)c1cc(-c2ccc(C)cc2)nc2ccccc12)c1ccccc1 (centres unmarked) [Example 57] |
| 180 to 182 °C | COC(=O)C(NC(=O)c1cc(-c2ccccc2C)nc2ccccc12)c1ccccc1 (centres unmarked) [Example 59] |
| 182 to 183 °C | COC(=O)C(NC(=O)c1cc(-c2ccc(OC)cc2)nc2ccccc12)c1ccccc1 (centres unmarked) [Example 60] |
| 164 to 165 °C | O=C(NC1(c2ccccc2)CCCC1)c1cc(-c2ccccc2)nc2ccccc12 [Example 61] |

| melting point | Compound |
| --- | --- |
| 226 to 227 °C | COC(=O)C(NC(=O)c1cc(-c2ccc(O)cc2)nc2ccccc12)c1ccccc1 (centres unmarked) [Example 62] |
| 186 to 187 °C | COC(=O)C(NC(=O)c1cc(-c2ccc3c(c2)OCO3)nc2ccccc12)c1ccccc1 (centres unmarked) [Example 63] |
| 173 to 174 °C | CC(C)(NC(=O)c1cc(-c2ccccc2)nc2ccccc12)c1ccccc1 [Example 64] |
| 160 to 162 °C | CCC(NC(=O)c1cc(-c2ccccc2)nc2ccccc12)c1ccc(C)cc1 (centres unmarked) [Example 65] |
| 202 to 204 °C | COC(=O)C(NC(=O)c1cc(-c2cc[nH]c2)nc2ccccc12)c1ccccc1 (centres unmarked) [Example 66] |
| 164 to 165 °C | COC(=O)C(NC(=O)c1cc(-c2ccc(Cl)c(Cl)c2)nc2ccccc12)c1ccccc1 (centres unmarked) [Example 67] |
| 139 to 141 °C | NC[C@H](NC(=O)c1cc(-c2ccccc2)nc2ccccc12)c1ccccc1 [Example 68] |
| 137 to 139 °C | CC[C@H](NC(=O)c1c(Cl)c(-c2ccccc2)nc2ccccc12)c1ccccc1 [Example 70] |
| 119 to 122 °C | CC[C@H](NC(=O)c1c(Br)c(-c2ccccc2)nc2ccccc12)c1ccccc1 [Example 71] |
| 165 to 166 °C | CC(C)C(NC(=O)c1cc(-c2ccccc2)nc2ccccc12)c1ccccc1 (centres unmarked) [Example 72] |
| 174 to 176 °C | COC(=O)C(NC(=O)c1cc(-c2ccccc2)nc2ccc(F)cc12)c1ccccc1 (centres unmarked) [Example 75] |
| 151 to 153 °C | COC(=O)C(NC(=O)c1cc(C2CCCCC2)nc2ccccc12)c1ccccc1 (centres unmarked) [Example 76] |
| 161 to 163 °C | COC(=O)C(NC(=O)c1cc(-c2cccc(Cl)c2)nc2ccccc12)c1ccccc1 (centres unmarked) [Example 77] |
| 175 to 178 °C | COC(=O)C(NC(=O)c1cc(-c2ccccc2Cl)nc2ccccc12)c1ccccc1 (centres unmarked) [Example 78] |
| 193 to 194 °C | COC(=O)C(NC(=O)c1cc(-c2ccccc2)nc2c(OC(C)=O)cccc12)c1ccccc1 (centres unmarked) [Example 80] |
| 178 to 180 °C | COC(=O)C(NC(=O)c1cc(-c2ccccc2)nc2c(O)cccc12)c1ccccc1 (centres unmarked) [Example 81] |
| 142 to 143 °C | COC(=O)C(NC(=O)c1cc(-c2ccc(Cl)cc2Cl)nc2ccccc12)c1ccccc1 (centres unmarked) [Example 82] |
| 182 to 184 °C | O=C(NC(c1ccccc1)c1ccccc1)c1cc(-c2ccccc2)nc2ccccc12 [Example 84] |
| 125 to 127 °C | COC(=O)[C@H](NC(=O)c1c(O)c(-c2ccccc2)nc2ccccc12)c1ccccc1 [Example 87] |

Target: T1, guinea-pig NK3 receptors (Cavia porcellus, UniProt P30098)
T1 sequence (P30098 1-440): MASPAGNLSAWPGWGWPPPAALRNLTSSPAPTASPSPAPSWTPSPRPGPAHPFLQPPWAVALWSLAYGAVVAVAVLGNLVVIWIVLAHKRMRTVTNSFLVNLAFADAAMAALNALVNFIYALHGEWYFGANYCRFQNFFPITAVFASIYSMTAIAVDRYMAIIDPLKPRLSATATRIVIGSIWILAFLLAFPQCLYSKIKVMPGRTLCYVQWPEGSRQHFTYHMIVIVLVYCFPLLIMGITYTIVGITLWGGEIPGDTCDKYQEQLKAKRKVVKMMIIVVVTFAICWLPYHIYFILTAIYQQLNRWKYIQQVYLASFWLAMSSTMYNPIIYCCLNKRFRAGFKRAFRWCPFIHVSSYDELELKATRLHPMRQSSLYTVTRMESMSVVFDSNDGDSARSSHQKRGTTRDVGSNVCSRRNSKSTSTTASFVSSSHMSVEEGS
Assay: Radioligand binding to guinea-pig NK3 receptors (guinea-pig cortex membranes, displacement of [3H]-Senktide or [125I]-[Me-Phe7]-NKB)
Experimental: The activity of the compounds of the present invention, as NK3 ligands, is determined by their ability to inhibit the binding of the radiolabelled NK3 ligands, [^125I]-[Me-Phe^7]-NKB or [^3H]-Senktide, to guinea-pig and human NK3 receptors (Renzertti et al, 1991, Neuropeptide, 18, 104-114; Buell et al, 1992, FEBS, 299(1), 90-95; Chung et al, 1994, Biochem. Biophys. Res. Commun., 198(3), 967-972). The binding assays utilized allow the determination of the concentration of the individual compound required to reduce by 50% the [^125I]-[Me-Phe^7]-NKB and [^3H]-Senktide specific binding to NK3 receptor in equilibrium conditions (IC50). Binding assays provide for each compound tested a mean IC50 value of 2-5 separate experiments performed in duplicate or triplicate. […] The NK3-antagonist activity of the compounds of the present invention is determined by their ability to inhibit senktide-induced contraction of the guinea-pig ileum (Maggi et al, 1990, Br. J. Pharmacol., 101, 996-1000) and rabbit isolated iris sphincter muscle (Hall et al., 1991, Eur. J. Pharmacol., 199, 9-14) and human NK3 receptors-mediated Ca^++ mobilization (Mochizuki et al, 1994, J. Biol. Chem., 269, 9651-9658). Guinea-pig and rabbit in-vitro functional assays provide for each compound tested a mean KB value of 3-8 separate experiments, where KB is the concentration of the individual compound required to produce a 2-fold rightward shift in the concentration-response curve of senktide. Human receptor functional assay allows the determination of the concentration of the individual compound required to reduce by 50% (IC50 values) the Ca^++ mobilization induced by the agonist NKB.

| Ki [nM] | Compound |
| --- | --- |
| 5.6 | CC[C@H](NC(=O)c1c(C)c(-c2ccccc2)nc2ccccc12)c1ccccc1 [Example 22] |
| 8.8 | CC[C@H](NC(=O)c1c(OC)c(-c2ccccc2)nc2ccccc12)c1ccccc1 [Example 47] |
| 12 | CCc1c(-c2ccccc2)nc2ccccc2c1C(=O)N[C@@H](CC)c1ccccc1 [Example 48] |
